From patent US11572373B2, “Maytansinoid-based drug delivery systems” (LADRX CORPORATION, priority 2017, dated 2023)

How the values were obtained:
[1] = system: cancer cell lines (LXFL 529, RKO, SW-620, CAL-27, LXFL 1674L, MDA-MB 468, SK-OV-3, PAXF 1657, MCF7, COLO 205, MDA-MB 231, BT-474, Hep G2); assay: In vitro cytotoxicity in different cell lines using the CellTiter-Blue Cell Viability Assay; type: cell-based, human; conditions: geometric mean over the n cell lines tested, 96 h treatment, CellTiter-Blue; read-out: Geomean IC50
[2] = Stability of maytansinoids and maytansinoid-HSA conjugates in CD1 mouse plasma; type: in vitro ADME; conditions: 37° C., 30 μM
Protocol: (§1) For studying the stability of the maytansinoids as wells as the maytansinoid-HSA conjugates in CD1 and human plasma the compounds were incubated at 37° C. for 24 hours. Remaining free maytansinoid or release of the respective maytansinoid was quantified by LC-MS/MS (or HPLC) at certain time points.
(§2) Pooled CD1 mouse or human plasma (K2EDTA, Innovative research) was centrifuged (1 min at 12,044 g). The supernatant was first filtered through a filter needle (5 μm, sterile, Becton Dickinson) and subsequently through a cellulose acetate membrane (0.45 μm, sterile, Carl Roth). The filtered plasma (1710 μL) was preincubated at 37° C. for 30 min in a heating block. The free maytansinoid or albumin-binding maytansinoid as a 300 μM stock solution in DMSO (190 μL) was added to the preincubated plasma sample to produce a 30 μM solution of the respective maytansinoid or maytansinoid-HSA conjugate. The mixture was allowed to react for 10 min at 37° C. and then at each time point (0, 1, 2, 3, 4, 5, 21, and 24 hours) three samples (70 μL) were taken into a 96-well plate, sealed with a plastic mat, immediately frozen with liquid nitrogen and stored at −20° C. At the end of the experiment, the 96-well plate was thawed at room temperature. The samples (30 μL) were then directly transferred via a multichannel pipette into a 96-well Impact™ protein precipitation plate (Strata®) which was once washed with MeCN (150 μL) and then loaded with the internal standard (120 μL, MeCN containing 5 μg/mL maytansine). The Impact™ precipitation plate was sealed with a silicone mat and shaken for 2 min 420 rpm. The Impact™ precipitation plate was then placed onto a 96-well sample manifold and the filtrate was collected into another 96-well plate by applying mild vacuum. The 96-well plate was sealed with a silicone mat and kept at room temperature until LC-MS/MS quantification. The filtrate was injected into the LC-MS for quantification using the MRM mode. […]

[3] = Stability of maytansinoids and maytansinoid-HSA conjugates in human plasma; type: in vitro ADME; conditions: 37° C., 30 μM
Protocol: as §1, §2

[4] = In vitro cytotoxicity in different cell lines using the CellTiter-Blue Cell Viability Assay; type: cell-based, human; conditions: Homo sapiens; geometric mean over the n cell lines tested, 96 h treatment, CellTiter-Blue; read-out: Geomean IC50

Row | SMILES | IC50 [1] [pM] | % of free maytansinoid remaining after 24 h [2] [%] | % of free maytansinoid remaining after 24 h [3] [%] | IC50 [4] [pM]
1 | COc1cc2cc(c1Cl)N(C)C(=O)C[C@H](OC(=O)[C@H](C)N(C)C(=O)CCSSC)[C@]1(C)O[C@H]1[C@H](C)[C@@H]1C[C@@](O)(NC(=O)O1)[C@H](OC)/C=C/C=C(\C)C2 [DM1-SMe, reference compound] | 1300 |  |  | 
2 | COc1cc2cc(c1Cl)N(C)C(=O)C[C@H](OC(=O)COc1cccc(C(C)=O)c1)[C@]1(C)O[C@H]1[C@H](C)[C@@H]1C[C@@](O)(NC(=O)O1)[C@H](OC)/C=C/C=C(\C)C2 [Compound 3] |  | 40.8 | 69.6 | 100
3 | COc1cc2cc(c1Cl)N(C)C(=O)C[C@H](OC(=O)Cc1ccc(C(C)=O)cc1F)[C@]1(C)O[C@H]1[C@H](C)[C@@H]1C[C@@](O)(NC(=O)O1)[C@H](OC)/C=C/C=C(\C)C2 [Compound 2] |  | 71.8 | 74.8 | 300
4 | COc1cc2cc(c1Cl)N(C)C(=O)C[C@H](OC(=O)Cc1ccc(C(C)=O)cc1)[C@]1(C)O[C@H]1[C@H](C)[C@@H]1C[C@@](O)(NC(=O)O1)[C@H](OC)/C=C/C=C(\C)C2 [Compound 4] |  | 65.2 | 75.6 | 160
5 | COc1cc2cc(c1Cl)N(C)C(=O)C[C@H](OC(=O)[C@H](C)N(C)C(=O)CCS)[C@]1(C)O[C@H]1[C@H](C)[C@@H]1C[C@@](O)(NC(=O)O1)[C@H](OC)/C=C/C=C(\C)C2 [DM1, reference compound] | 3220 |  |  | 
